{"source": "patent US20240349724A1", "about": "“ANTIMICROBIAL COMPOSITIONS EFFECTIVE AGAINST BACTERIA AND FUNGUS” (TerMir Inc., priority 2017, published 2024)", "key": {"[1]": {"test_system": "Stenotrophomonos maltophilia ATCC 13637", "assay": "CLSI M07-A10 microdilution / checkerboard MIC", "assay_type": "cell-based, Stenotrophomonas maltophilia", "conditions": "for Reduced PhlB: fraction of PhlB dosage", "experimental": "(§1) Tests are conducted according to the 2015 Clinical and Laboratory Standards Institute Method M07-A10: Methods for dilution antimicrobial susceptibility tests for bacteria that grow aerobically. Sterile 96-well microplates are prepared with Meuller Hinton Broth containing varying amounts of test compounds in each well (100 μL per well). Then according to the CLSI M07-A10 microdilution assay, a row with a 2-fold serial dilution series with 10 different concentrations of the test compound are prepared along with three replicate rows for each combination of test organism and test compound. According to the CLSI M07-A10 microdilution combination (checkerboard) assay, an 8×8 well matrix containing two 2-fold serial dilution series of two test compounds arranged perpendicular to one another so that each concentration of compound 1 is prepared once with each combination of compound 2. One column with a 2-fold serial dilution series with 8 different concentrations of test compound 1 is prepared along with one column with a 2-fold serial dilution series with 8 different concentrations of test compound 2. One microplate for each combination of test organism and pair of test compounds is prepared in addition to a cell suspension of each test microorganism equivalent to a 0.5 McFarland turbidity standard using fresh isolated colonies grown on Meuller Hinton Agar. Each cell suspension is diluted in a 1:20 ratio in Meuller Hinton Broth and the microplate is inoculated by adding add 10 μL to each well. Microplates then incubate according to CLSI M07-A10.\n(§2) Microplates are read and data was interpreted according to the following procedure: The minimum inhibitory concentration (MIC) is the minimum concentration of the test compound needed to cease growth of the organism, it encompasses microbe death as well as microbe loss of the ability to divide and grow. Supplemental light was used during the 24-hour incubation period. Light intensity ranged from 1259 and 4203 lux."}, "[2]": {"test_system": "Altemaria alternata ATCC 66981", "assay": "Mold microplate MIC (visible growth)", "assay_type": "cell-based, Alternaria alternata", "conditions": "for Reduced PhlB: fraction of PhlB dosage", "experimental": "(§3) Mold: Culture Curvularia and Aspergillus on SDA at 35±1° C. for 7 days or until good sporulation is obtained. Culture Alternaria at 30±1° C. for 7 days or until good sporulation is obtained. Harvest sporulating colonies with 0.8-0.9% saline solution and transfer to a fresh tube. Allow heavy particles to settle for 5 minutes and transfer the upper homogeneous suspension to a sterile tube and mix via vortex for 15 seconds. Read and adjust the optical density to OD (530 nm): • Alternaria: 0.25-0.30 • Aspergillus: 0.09-0.13 • Curvularia: 0.25-0.30\n(§4) During the Candida adjusted inoculum preparation, saline cell suspensions with optical densities equal to that of a 0.5 McFarland Equivalence Turbidity Standard were diluted 1:1000 in RPMI 1640, rather than 1:2000 as instructed in CLSI M27-A3. Alternaria was cultured at 30±1° C. for 7 days or until good sporulation was obtained.\n(§5) Data Analysis/Reporting: Read microplates for visible growth (turbidity). Use the minimum inhibitory concentration (MIC)."}, "[3]": {"test_system": "Ralstonia insidiosa ATCC 49129", "assay": "microbe, parasite or virus in culture", "assay_type": "cell-based", "conditions": "for Reduced PhlB: fraction of PhlB dosage", "experimental": "as §1, §2"}, "[4]": {"test_system": "Aspergillus niger ATCC 6275", "assay": "Mold microplate MIC (visible growth)", "assay_type": "cell-based", "conditions": "for Reduced PhlB: fraction of PhlB dosage", "experimental": "as §3, §5"}, "[5]": {"test_system": "Candida albicans ATCC 10231", "assay": "Yeast microplate MIC (visible growth)", "assay_type": "cell-based", "conditions": "for Reduced PhlB: fraction of PhlB dosage", "experimental": "Yeast: Culture Candida on Sabouraud Dextrose Agar (SDA) at 35±1° C. for 24-48 hours until colonies are approximately 2-3 mm in diameter. Suspend ˜5 colonies in 5 mL of sterile 0.8-0.9% saline solution. Vortex for 15 seconds. Adjust the cell density to that of a 0.5 McFarland Equivalence Turbidity Standard. Prepare adjusted inoculum: Dilute the cell suspension 1:2000 in RPMI 1640. Inoculate microplates by adding 100 μL to each applicable well.\nas §4, §5"}, "[6]": {"test_system": "Bacillus subtilis ATCC 15841", "assay": "CLSI M07-A10 microdilution / checkerboard MIC", "assay_type": "cell-based", "conditions": "for Reduced PhlB: fraction of PhlB dosage", "experimental": "as §1, §2"}, "[7]": {"test_system": "Rhizobium radiobacter ATCC 70069", "assay": "CLSI M07-A10 microdilution / checkerboard MIC", "assay_type": "cell-based", "conditions": "for MIC: Agrobacterium radiobacter, ATCC70069, 24 h, read-out: MIC at 24 hours in Light, Fluorescein, R. radiobacter; for Reduced PhlB: fraction of PhlB dosage", "experimental": "as §1, §2"}, "[8]": {"test_system": "Curvularia lunata ATCC 12017", "assay": "Mold microplate MIC (visible growth)", "assay_type": "cell-based", "conditions": "for Reduced PhlB: fraction of PhlB dosage", "experimental": "as §3, §5"}, "[9]": {"test_system": "Gram(+) bacteria", "conditions": "background statement; cited from earlier work"}, "[10]": {"test_system": "Gram(−) bacteria", "conditions": "PhlB on its own; background statement; cited from earlier work"}, "[11]": {"conditions": "S. maltophilia, alone ('Trial' line)"}, "[12]": {"conditions": "A. alternata, alone ('Trial' line)"}, "[13]": {"conditions": "R. insidiosa, alone ('Trial' line)"}, "[14]": {"conditions": "C. albicans, alone ('Trial' line)"}, "[15]": {"conditions": "B. subtilis, alone ('Trial' line)"}, "[16]": {"conditions": "R. radiobacter, alone ('Trial' line)"}}, "note": "Several values for one entry are separate records, joined by “and”; a condition that tells them apart may be missing. Equal entries are not always repeated. Where two headings read alike, the source gives them in different places."}
{"smiles": "N.N.O=S(=O)(O)O", "note": "[Ammonium sulfate, ammonium sulfate]", "values": [{"measurement": "MIC at 24 hours in Light, Ammonium sulfate", "setting": "[1]; [11]", "result": 375000, "unit": "µM"}, {"measurement": "MIC at 24 hours in Light, Ammonium sulfate", "setting": "[2]; [12]", "result": 46874, "unit": "µM"}, {"measurement": "MIC at 24 hours in Light, Ammonium sulfate", "setting": "[3]; [13]", "result": 750000, "unit": "µM"}, {"measurement": "MIC at 24 hours in Light, Ammonium sulfate", "setting": "[4]; A. niger, alone ('Trial' line)", "result": 93749, "unit": "µM"}, {"measurement": "MIC at 24 hours in Light, Ammonium sulfate", "setting": "[5]; [14]", "result": 750000, "unit": "µM"}, {"measurement": "MIC at 24 hours in Light, Ammonium sulfate", "setting": "[6]; [15]", "result": 93800, "unit": "µM"}, {"measurement": "MIC at 24 hours in Light, Ammonium sulfate", "setting": "[7]; [16]", "result": 93800, "unit": "µM"}]}
{"smiles": "O=C1OC2(c3ccc(O)cc3Oc3cc(O)ccc32)c2ccccc21", "note": "[Fluorescein, 3′,6′-dihydroxyspiro[2-benzofuran-3,9′-xanthene]-1-one]", "values": [{"measurement": "MIC", "setting": "[1]; Stenotrophomonas maltophilia, ATCC13637, 24 h, read-out: MIC at 24 hours in Light, Fluorescein, S. maltophilia, alone ('Trial' line)", "result": 7.8, "unit": "µM"}, {"measurement": "MIC", "setting": "[2]; Alternaria alternata, ATCC66981, 24 h, read-out: MIC at 24 hours in Light, Fluorescein, A. alternata, alone ('Trial' line)", "result": 15.7, "unit": "µM"}, {"measurement": "MIC", "setting": "[3]; Ralstonia insidiosa, ATCC49129, 24 h, read-out: MIC at 24 hours in Light, Fluorescein, R. insidiosa, alone ('Trial' line)", "result": 7.8, "unit": "µM"}, {"measurement": "MIC", "setting": "[8]; Curvularia lunata, ATCC12017, 24 h, read-out: MIC at 24 hours in Light, Fluorescein, C. lunata, alone ('Trial' line)", "result": 15.7, "unit": "µM"}, {"measurement": "MIC", "setting": "[4]; Aspergillus niger, ATCC6275, 24 h, read-out: MIC at 24 hours in Light, Fluorescein, A. niger, alone ('Trial' line)", "result": 1.86, "unit": "µM"}, {"measurement": "MIC", "setting": "[5]; Candida albicans, ATCC10231, 24 h, read-out: MIC at 24 hours in Light, Fluorescein, C. albicans, alone ('Trial' line)", "result": 2000, "unit": "µM"}, {"measurement": "MIC", "setting": "[6]; Bacillus subtilis, ATCC15841, 24 h, read-out: MIC at 24 hours in Light, Fluorescein, B. subtilis, alone ('Trial' line)", "result": 62.5, "unit": "µM"}, {"measurement": "MIC", "setting": "[7]; alone ('Trial' line)", "result": 0.98, "unit": "µM"}, {"measurement": "MIC", "setting": "[7]; combined with PHL B (c2 of same line)", "result": 0.49, "unit": "µM"}]}
{"smiles": "[Na+].[Na+].[O-]B1OB2OB([O-])OB(O1)O2", "note": "[NaTetraBorate, sodium tetraborate]", "values": [{"measurement": "MIC at 24 hours in Light, NaTetraBorate", "setting": "[1]; [11]", "result": 5000, "unit": "µM"}, {"measurement": "MIC at 24 hours in Light, NaTetraBorate", "setting": "[2]; [12]", "result": 625160, "unit": "µM"}, {"measurement": "MIC at 24 hours in Light, NaTetraBorate", "setting": "[3]; [13]", "result": 10000, "unit": "µM"}, {"measurement": "MIC at 24 hours in Light, NaTetraBorate", "setting": "[8]; C. lunata, alone ('Trial' line)", "result": 4999.50, "unit": "µM"}, {"measurement": "MIC at 24 hours in Light, NaTetraBorate", "setting": "[4]; A. niger, alone ('Trial' line)", "result": 2673, "unit": "µM"}, {"measurement": "MIC at 24 hours in Light, NaTetraBorate", "setting": "[5]; [14]", "result": 9999, "unit": "µM"}, {"measurement": "MIC at 24 hours in Light, NaTetraBorate", "setting": "[6]; [15]", "result": 10000, "unit": "µM"}, {"measurement": "MIC at 24 hours in Light, NaTetraBorate", "setting": "[7]; [16]", "result": 2500, "unit": "µM"}]}
{"smiles": "O=C1OC2(c3cc(Br)c([O-])c(Br)c3Oc3c2cc(Br)c([O-])c3Br)c2c(Cl)c(Cl)c(Cl)c(Cl)c21.[Na+].[Na+]", "note": "[PHL B, disodium salt of 2′,4′,5′,7′-tetrabromo-4,5,6,7-tetrachlorofluorescein]", "values": [{"measurement": "Reduced PhlB", "setting": "[1]; S. maltophilia, with Fluorescein", "result": "⅛ and ¼ and ½ and 1/16"}, {"measurement": "Reduced PhlB", "setting": "[1]; S. maltophilia, with NaTetraBorate", "result": "⅛ and ¼ and ½"}, {"measurement": "MIC at 24 hours in Light, PHL B", "setting": "[2]; [12]", "result": "1.93 µM and 3.62 µM"}, {"measurement": "Reduced PhlB", "setting": "[2]; A. alternata, with Ammonium sulfate", "result": "¼ and ½"}, {"measurement": "Reduced PhlB", "setting": "[2]; A. alternata, with Fluorescein", "result": "¼"}, {"measurement": "Reduced PhlB", "setting": "[2]; A. alternata, with NaTetraBorate", "result": "½"}, {"measurement": "control of Gram(+) bacteria", "setting": "[9]", "result": "control Gram(+) bacteria at millimolar to micromolar concentrations"}, {"measurement": "Reduced PhlB", "setting": "[3]; R. insidiosa, with Fluorescein", "result": "⅛ and ¼ and ½ and 1/16"}, {"measurement": "Reduced PhlB", "setting": "[3]; R. insidiosa, with NaTetraBorate", "result": "⅛ and ¼ and ½"}, {"measurement": "Reduced PhlB", "setting": "[8]; C. lunata, with Ammonium sulfate", "result": "⅛ and ¼ and ½"}, {"measurement": "Reduced PhlB", "setting": "[8]; C. lunata, with Fluorescein", "result": "¼ and ½"}, {"measurement": "Reduced PhlB", "setting": "[8]; C. lunata, with NaTetraBorate", "result": "¼ and ½"}, {"measurement": "MIC at 24 hours in Light, PHL B", "setting": "[4]; A. niger, alone ('Trial' line)", "result": "1.93 µM and 3.62 µM"}, {"measurement": "Reduced PhlB", "setting": "[4]; A. niger, with Ammonium sulfate", "result": "¼ and ½"}, {"measurement": "Reduced PhlB", "setting": "[4]; A. niger, with Fluorescein", "result": "½"}, {"measurement": "Reduced PhlB", "setting": "[4]; A. niger, with NaTetraBorate", "result": "½"}, {"measurement": "MIC at 24 hours in Light, PHL B", "setting": "[5]; [14]", "result": "125 µM and 125.36 µM and 62.68 µM"}, {"measurement": "Reduced PhlB", "setting": "[5]; C. albicans, with Ammonium sulfate", "result": "1/125 and 1/64 and 1/32 and 1/16 and ⅛ and ¼ and ½"}, {"measurement": "Reduced PhlB", "setting": "[5]; C. albicans, with Fluorescein", "result": "1/64 and 1/32 and 1/16 and ⅛ and ¼ and ½"}, {"measurement": "Reduced PhlB", "setting": "[5]; C. albicans, with NaTetraBorate", "result": "1/128 and 1/64 and 1/32 and 1/16 and ⅛ and ¼ and ½"}, {"measurement": "MIC at 24 hours in Light, PHL B", "setting": "[6]; [15]", "result": "0.98 µM and 0.49 µM"}, {"measurement": "Reduced PhlB", "setting": "[6]; B. subtilis, with Fluorescein", "result": "⅛ and ¼ and ½ and 1/16"}, {"measurement": "Reduced PhlB", "setting": "[6]; B. subtilis, with NaTetraBorate", "result": "3/98 and 3/49 and ⅛ and ¼ and ½"}, {"measurement": "MIC at 24 hours in Light, PHL B", "setting": "[7]; [16]", "result": "0.12 µM and 0.24 µM"}, {"measurement": "Reduced PhlB", "setting": "[7]; R. radiobacter, with Fluorescein", "result": "¼ and ½ and ⅛"}, {"measurement": "Reduced PhlB", "setting": "[7]; R. radiobacter, with NaTetraBorate", "result": "¼ and ½"}, {"measurement": "control of Gram(−) bacteria", "setting": "[10]", "result": "does not control Gram(−) bacteria"}]}
